Measurements published in article PMC8619673 (Cells, 2021).

What was measured:
Aβ42 peptide = target: T1, Aβ42 peptide (Homo sapiens, UniProt P05067); assay: Thioflavin T aggregation assay; type: biochemical; settings: for Aβ aggregation inhibition (in words): compound 20 μM, thioflavin T assay
T1 construct: Aβ42 peptide (10 μM; Kelowna Int’l Scientific Inc., New Taipei City, Taiwan); purchased Kelowna Int’l Scientific Inc., New Taipei City, Taiwan
Method: To form Aβ aggregation, Aβ42 peptide (10 μM; Kelowna Int’l Scientific Inc., New Taipei City, Taiwan) was incubated with tested compounds (5–20 μM) in 150 mM NaCl and 20 mM Tris-HCl (pH8.0) at 37 °C for 48 h. Thioflavin T (10 μM; Sigma-Aldrich) was added to the Aβ mixture and incubated at room temperature for 5 min. The fluorescence intensity was recorded at 420 nm excitation and 485 nm emission by an FLx800 microplate reader (Bio-Tek, Winooski, VT, USA). Half maximal effective concentration (EC50) was estimated by a method of interpolation.

in vitro [1] = settings: for Papp at 18 h, 1 μM: PAMPA
Method: PAMPA was used to predict the penetration of the tested compounds across the BBB. […] The filter PVDF membrane (pore size 0.45 μm; Millipore) was coated with 4 μL of porcine polar brain lipid (20 mg/mL; Avanti Polar Lipids, Alabaster, AL, USA) in dodecane and the acceptor well filled with 200 μL of 5% DMSO in PBS. The filter plate was carefully placed on the donor plate to form a sandwich plate at room temperature for 18 h. After the permeation time, the filter and donor plates were separated. The concentration of the tested compound in the donor and acceptor wells was measured by an AB Sciex QTrap 5500 mass spectrometer (Applied Biosystems) linked to a 1200 HPLC system (Agilent Technologies, Palo Alto, CA, USA). The concentrations of the QC compounds were determined by a Tecan Infinite M200 Pro microplate reader (Switzerland). The effective permeability coefficient (Pe) was calculated as described. Each compound was tested in triplicate.

TRKB = assay: Western blot, TRKB and p-TRKB; type: cell-based, Human; settings: 5 µM
Method: (§1) Cellular proteins were prepared using a lysis buffer containing NaCl (150 mM), ethylene diamine tetraacetic acid (EDTA, 1 mM, pH8.0), Tris-HCl (50 mM, pH8.0), ethylene glycol tetraacetic acid (EGTA, 1 mM, pH8.0), sodium dodecyl sulfate (SDS, 0.1%), sodium deoxycholate (SD, 0.5%), Triton X-100 (1%), and protease (Sigma-Aldrich), and phosphatase (Abcam, Cambridge, MA, USA) inhibitor cocktails. After quantitation by protein assay kit (Bio-Rad, Hercules, CA, USA), 20 µg proteins were separated by SDS-polyacrylamide (10%) gel electrophoresis and transferred to polyvinylidene difluoride (PVDF) membranes (Sigma-Aldrich) using a Mini Trans-Blot cell (Bio-Rad). After blocking, the membrane was probed with anti-TRKB, anti-p-TRKB (Y516), anti-p-TRKB (Y817) (1:500; Cell Signaling, Danvers, MA, USA), anti-ERK, anti-p-ERK (T202/Y204) (1:1000; Cell Signaling), anti-AKT, anti-p-AKT (S473) (1:1000; Cell Signaling), anti-CREB, anti-p-CREB (S133) (1:1000; Millipore, Billerica, MA, USA), anti-BDNF, anti-BCL2 (1:500; Santa Cruz Biotechnology, Santa Cruz, CA, USA), anti-BAX (1:1000; Cell Signaling), anti-β-tubulin (1:500; Sigma-Aldrich), or anti-GAPDH (1:1000, MDBio, Taipei, Taiwan) antibody. The immune complexes were detected using goat anti-mouse or goat anti-rabbit IgG antibody conjugated with horseradish peroxidase (1:5000; GeneTex, Irvine, CA, USA) and chemiluminescent substrate (Millipore).
(§2) Lentiviral short hairpin RNA (shRNA) targeting TRKB (TRCN0000002243, TRCN0000002245, and TRCN0000002246) and a negative-scrambled control (TRC2.Void) were obtained from the National RNAi Core Facility, IMB/GRC, Academia Sinica (Taipei, Taiwan). As described, cells were plated on 6- or 24-well plates, with retinoic acid added on day 1. Cells were infected with lentivirus (multiplicity of infection, 3 for each shRNA), with polybrene (8 µg/mL; Sigma-Aldrich) on the next day. Cells were pretreated with tested compounds (5 µM) for 8 h after changing medium, followed by doxycycline on day 3. Cells were collected for further analysis on day 9. The hairpin sequences of targeting shRNA were below: • TRCN0000002243: 5’-[…]ctcgag[…]-3’ • TRCN0000002245: 5’-[…]ctcgagATGTT-[…]-3’ • TRCN0000002246: 5’-[…]ctcgag[…]-3’ • TRC2.Void: 5’-[…]ctcgag[…]-3’

AKT = assay: Western blot, p-AKT; type: cell-based, Human; settings: 5 µM; induced untreated 81%
Method: as §1

CREB = assay: Western blot, p-CREB; type: cell-based, Human; settings: 5 µM; induced untreated 81%
Method: as §1

ERK = assay: Western blot, p-ERK; type: cell-based, Human; settings: 5 µM; induced untreated 79%
Method: as §1

BAX = assay: Western blot, BAX; type: cell-based, Human; settings: 5 µM; induced untreated 182%
Method: as §1

BCL2 = assay: Western blot, BCL2; type: cell-based, Human; settings: 5 µM; induced untreated 72%
Method: as §1

Aβ-GFP SH-SY5Y cells = assay: Neurite outgrowth analysis; type: cell-based, Human; settings: 5 µM
Method: Aβ-GFP SH-SY5Y cells (6 × 10^4 cells) were seeded on a 24-well plate with retinoic acid (10 µM) on day 1. Tested coumarins (5 µM) and doxycycline (5 μg/mL) were added on day 2, as described. On day 8, the cells were washed with phosphate-buffered saline (PBS) twice and fixed in 4% paraformaldehyde at 4 °C for 15 min. Cells were permeabilized with Triton X-100 (0.1%) for 10 min, blocked with bovine serum albumin (3%) for 20 min, and stained with anti-neuronal TUBB3 antibody (1:1000; Covance, Princeton, NJ, USA) at 4 °C overnight. The next day, cells were washed with PBS twice and stained by a secondary donkey anti-rabbit Alexa Fluor® 555 antibody (1:1000; Thermo Fisher Scientific) and 4′,6-diamidino-2-phenylindole (DAPI; 0.1 µg/mL; Sigma-Aldrich) at room temperature for 1 h. Neuronal images from at least 60 individual fields (150–250 neurons per field) per experiment were captured at excitation 531/40 nm and emission 593/40 nm wavelengths using an ImageXpress micro confocal high-content imaging system (Molecular Devices). Neurite total length (μm) and numbers of process (the number of primary neurites originated from the cell body of a neuron) and branch (the number of secondary neurites extended from primary neurites) were analyzed using a MetaXpress neurite outgrowth application module (Molecular Devices). For each sample, around 6000 cells were analyzed in each of three independent experiments.
as §2

BDNF = assay: Western blot, BDNF; type: cell-based, Human; settings: 5 µM
Method: as §1

in vitro [2] = type: cell-based; settings: human
Method: To induce neuronal differentiation, 2 × 10^4 Aβ-GFP SH-SY5Y cells were seeded on a 96-well plate with retinoic acid (10 µM; Sigma-Aldrich). Cells were pretreated with tested compounds (0.2–5 µM) on day 2 for 8 h and then with doxycycline (5 μg/mL) to induce Aβ-GFP expression. Medium containing retinoic acid compound and doxycycline was refreshed every 2 days for 6 days. Then, cells were stained with Hoechst 33342 (0.1 µg/mL; Sigma-Aldrich) at 37 °C for 30 min. Cell images were recorded at 482/35 nm excitation and 536/40 nm emission wavelengths (ImageXpres Micro Confocal High-Content Imaging System; Molecular Devices, Sunnyvale, CA, USA), and analyzed by MetaXpress (Molecular Devices).

T1 sequence (P05067 672-713 limits assumed): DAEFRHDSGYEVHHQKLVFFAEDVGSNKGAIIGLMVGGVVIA

Compound: COc1ccc(C(=O)c2cc3ccc(O)cc3oc2=O)cc1 [ZN011, 7-hydroxy-3-(4-methoxybenzoyl)-2H-chromen-2-one]
- Aβ aggregation inhibition (in words) (Aβ42 peptide): did not inhibit Aβ aggregation

Compound: CC(Oc1ccc2cc(C(=O)c3ccccc3)c(=O)oc2c1)C(=O)O (stereo not shown) [ZN009, 2-((3-benzoyl-2-oxo-2H-chromen-7-yl)oxy)propanoic acid]
- Aβ aggregation inhibition (in words) (Aβ42 peptide): did not inhibit Aβ aggregation

Compound: NC(=O)N1c2ccccc2C=Cc2ccccc21 [Carbamazepine, carbamazepine]
- Papp at 18 h, 1 μM (in vitro [1]; BBB Permeability Classification): > 4 ×10⁻⁶ cm/s
- Papp at 18 h, 1 μM (in vitro [1]; Measured Pe (effective permeability)): 9.85 ± 0.6 ×10⁻⁶ cm/s

Compound: O=c1cc(-c2ccccc2)oc2c(O)c(O)ccc12 [7,8-DHF, reference compound]
- p-TRKB (Y516) protein level relative to uninduced cells (100%) (TRKB; induced untreated 40%): 92–100%
- p-TRKB (Y817) protein level relative to uninduced cells (100%) (TRKB; induced untreated 71%): 94–108%
- TRKB expression relative to uninduced cells (100%) (TRKB; scrambled shRNA-infected Aβ-expressing cells, untreated 80%): 77–81%
- p-AKT (S473) protein level relative to uninduced cells (100%) (AKT): 91–110%
- p-CREB (S133) protein level relative to uninduced cells (100%) (CREB): 98–101%
- p-ERK (T202/Y204) protein level relative to uninduced cells (100%) (ERK): 95–107%
- BAX protein level relative to uninduced cells (100%) (BAX): 126%
- BCL2 protein level relative to uninduced cells (100%) (BCL2): 104–116%
- Neurite process number (Aβ-GFP SH-SY5Y cells; TRKB shRNA-infected cells, untreated 2.9): 3.5
- Neurite branch number (Aβ-GFP SH-SY5Y cells; scrambled shRNA-infected cells, untreated 2.4): 3.0–3.1
- Neurite process number (Aβ-GFP SH-SY5Y cells; scrambled shRNA-infected cells, untreated 3.5): 3.9–4.0
- Neurite length (Aβ-GFP SH-SY5Y cells; scrambled shRNA-infected cells, untreated 25.3): 30.7–30.9 µm
- BDNF 14 kDa protein level relative to uninduced cells (100%) (BDNF; induced untreated 42%): 124–140%
- BDNF 32 kDa protein level relative to uninduced cells (100%) (BDNF; induced untreated 88%): 113–119%
- BBB Permeability Classification (in vitro [1]; PAMPA-BBB): High (Pe > 4 × 10^−6 cm/s (high))
- Measured Pe (effective permeability) (in vitro [1]; PAMPA-BBB, room temperature 18 h, triplicate): 6.32 ± 1.35 10^−6 cm/s

Compound: lucifer yellow
- Penetration of integrity marker (in words) (in vitro [1]; PAMPA-BBB, indicates good membrane integrity): undetectable
- % Transport (in vitro [1]; PAMPA-BBB, integrity marker): 0.00 (% Transport)

Compound: COc1cc(/C=C/C(=O)CC(=O)/C=C/c2ccc(O)c(OC)c2)ccc1O [curcumin, Curcumin, reference compound]
- viability at 6 days, 10 µM (in vitro [2]): < 80%
- Neurite branch number (Aβ-GFP SH-SY5Y cells; induced untreated 1.8, uninduced 2.8): 2.4–2.5
- Neurite process number (Aβ-GFP SH-SY5Y cells; induced untreated 3.3, uninduced 4.4): 4.2–4.3
- Neurite total length (Aβ-GFP SH-SY5Y cells; induced untreated 23.9, uninduced 31.2): 29.1–29.3 μm
- Thioflavin T fluorescence (Aβ aggregation) (Aβ42 peptide; compound 20 µM, Aβ42 10 μM, 37 °C 2 days, 621 AU without compound, 151 AU without incubation): 339 AU

Compound: O=C(c1ccc(Cl)cc1)c1c(O)c2ccccc2oc1=O [ZN010, 3-(4-chlorobenzoyl)-4-hydroxy-2H-chromen-2-one]
- Aβ aggregation inhibition (in words) (Aβ42 peptide): did not inhibit Aβ aggregation
